In patent US8906852B2 (MethylGene Inc., priority 2010, dated 2014):

target: T1, VEGFR/KDR (Homo sapiens, UniProt P35968); experiment: VEGFR/KDR kinase inhibition, DELFIA assay; assay type: biochemical; conditions: ATP 0.6 uM (2x Km), enzyme 5 nM
T1 construct: made in house; host or cells: Sf9 cells (Spodoptera frugiperda), baculovirus
Experimental: Inhibition of VEGFR/KDR is measured in a DELFIA™ assay (Perkin Elmer). The substrate poly(Glu4, Tyr) is immobilized onto black high-binding polystyrene 96-well plates. The coated plates are washed and stored at 4° C. During the assay, the enzyme is pre-incubated with inhibitor and Mg-ATP on ice in polypropylene 96-well plates for 4 minutes, and then transferred to the coated plates. The subsequent kinase reaction takes place at 30° C. for 10-30 minutes. ATP concentrations in the assay are 0.6 uM for VEGFR/KDR (2× the Km). Enzyme concentration is 5 nM. After incubation, the kinase reactions are quenched with EDTA and the plates are washed. Phosphorylated product is detected by incubation with Europium-labeled anti-phosphotyrosine MoAb. After washing the plates, bound MoAb is detected by time-resolved fluorescence in a Gemini SpectraMax reader (Molecular Devices). Compounds are evaluated over a range of concentrations, and IC50 values (concentration of compounds giving 50% inhibition of enzymatic activity) are determined.

T1 sequence (P35968 806-1356): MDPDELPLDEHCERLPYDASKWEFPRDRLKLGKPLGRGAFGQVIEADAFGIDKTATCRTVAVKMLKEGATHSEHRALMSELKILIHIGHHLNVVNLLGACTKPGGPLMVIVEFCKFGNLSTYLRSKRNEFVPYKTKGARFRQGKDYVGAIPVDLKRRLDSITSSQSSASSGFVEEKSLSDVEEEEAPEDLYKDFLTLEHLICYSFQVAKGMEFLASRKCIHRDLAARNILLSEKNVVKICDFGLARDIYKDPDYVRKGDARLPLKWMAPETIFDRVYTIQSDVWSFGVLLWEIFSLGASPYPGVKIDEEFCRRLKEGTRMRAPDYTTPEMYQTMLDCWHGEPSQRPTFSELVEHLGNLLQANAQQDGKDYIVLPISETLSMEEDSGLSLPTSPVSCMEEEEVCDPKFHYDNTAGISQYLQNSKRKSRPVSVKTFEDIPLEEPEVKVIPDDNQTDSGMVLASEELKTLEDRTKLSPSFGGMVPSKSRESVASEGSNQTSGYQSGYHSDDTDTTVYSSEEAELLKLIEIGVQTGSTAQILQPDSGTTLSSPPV

`COCCN(CCn1cc(-c2cc3nccc(Oc4ccc(NC(=O)NC5CC5)cc4F)c3s2)cn1)C(=O)CO` [Compound 257, N-(2-(4-(7-(4-(3-cyclopropylureido)-2-fluorophenoxy)thieno[3,2-b]-pyridin-2-yl)-1H-pyrazol-1-yl)ethyl)-2-hydroxy-N-(2-methoxyethyl)acetamide] and “N-(4-(7-(4-(3-cyclopropylureido)-2-fluorophenoxy)thieno[3,2-b]pyridin-2-yl)benzyl)-2-(2-methoxyethoxy)-N-(2-methoxyethyl)acetamide [Compound 115]” cannot be ordered by IC50: < 50 nM for the first, < 50 nM for the second.

`NC1CCN(Cc2ccc(-c3cc4nccc(Oc5ccc(NC(=O)NC6CC6)cc5F)c4s3)nc2)CC1` [Compound 343, 1-(4-(2-(5-((4-Aminopiperidin-1-yl)methyl)pyridin-2-yl)thieno[3,2-b]pyridin-7-yloxy)-3-fluorophenyl)-3-cyclopropylurea] and `O=C(Cn1cc(-c2cc3nccc(Oc4ccc(NC(=O)NC5CC5)cc4F)c3s2)nn1)NCc1ccccn1` [Compound 383] cannot be ordered by IC50: < 50 nM for the first, < 50 nM for the second.

`COCCOCC(=O)N1CCN(Cc2ccc(-c3cc4nccc(Oc5ccc(NC(=O)NC6CC6)cc5F)c4s3)nc2)CC1` [Compound 589] and `COCCOCC(=O)N1CC=C(c2cc3nccc(Oc4ccc(NC(=O)NC5CC5)cc4F)c3s2)CC1` [Compound 274] cannot be ordered by IC50: < 50 nM for the first, < 50 nM for the second.

First: CCOC(=O)C1CCCN(C(=O)c2cc3nccc(Oc4ccc(NC(=O)NC5CC5)cc4F)c3s2)C1 (stereo not drawn) [Compound 458]
Second: CCCNC(=O)NC1CCN(Cc2ccc(-c3cc4nccc(Oc5ccc(NC(=O)NC6CC6)cc5F)c4s3)nc2)CC1 [Compound 354]
The IC50 of the first is higher: 50 to 100 nM for the first, < 50 nM for the second. The second is the more potent here.

First: O=C(Nc1ccc(Oc2ccnc3cc(-c4ccc(CN5CCCC5=O)nc4)sc23)c(F)c1)NC1CC1 [Compound 283, 1-cyclopropyl-3-(3-fluoro-4-(2-(6-((2-oxopyrrolidin-1-yl)methyl)pyridin-3-yl)thieno[3,2-b]pyridin-7-yloxy)phenyl)urea]
Second: CC(C)NC(=O)Nc1ccc(Oc2ccnc3cc(-c4ncc(C(=O)N5CCCC5)n4C)sc23)c(F)c1 [Compound 223, 1-(3-fluoro-4-(2-(1-methyl-5-(pyrrolidine-1-carbonyl)-1H-imidazol-2-yl)thieno[3,2-b]pyridin-7-yloxy)phenyl)-3-isopropylurea]
The IC50 of the first is lower: < 50 nM for the first, 100 to 250 nM for the second.

`CC(C)N1CCN(Cc2ccc(-c3cc4nccc(Oc5ccc(NC(=O)NC6CC6)cc5F)c4s3)nc2)CC1` [Compound 54-E, 1-cyclopropyl-3-(3-fluoro-4-(2-(5-((4-isopropylpiperazin-1-yl)methyl)pyridin-2-yl)thieno[3,2-b]pyridin-7-yloxy)phenyl)urea] and `N[C@H]1CCN(Cc2ccc(-c3cc4nccc(Oc5ccc(NC(=O)NC6CC6)cc5F)c4s3)nc2)C1` [Compound 495, (S)-1-(4-(2-(5-((3-aminopyrrolidin-1-yl)methyl)pyridin-2-yl)thieno[3,2-b]-pyridin-7-yloxy)-3-fluorophenyl)-3-cyclopropylurea] cannot be ordered by IC50: < 50 nM for the first, < 50 nM for the second.

`CN1CCN(C(=O)[C@@H]2CCCN2Cc2ccc(-c3cc4nccc(Oc5ccc(NC(=O)NC6CC6)cc5F)c4s3)nc2)CC1` [Compound 488, (S)-1-cyclopropyl-3-(3-fluoro-4-(2-(5-((2-(4-methylpiperazine-1-carbonyl)pyrrolidin-1-yl)methyl)pyridin-2-yl)thieno[3,2-b]pyridin-7-yloxy)phenyl)urea] and `O=C(O)CN1CCN(Cc2ccc(-c3cc4nccc(Oc5ccc(NC(=O)NC6CC6)cc5F)c4s3)nc2)CC1` [Compound 61, 2-(4-((6-(7-(4-(3-cyclopropylureido)-2-fluorophenoxy)thieno[3,2-b]pyridin-2-yl)pyridin-3-yl)methyl)piperazin-1-yl)acetic acid] cannot be ordered by IC50: < 50 nM for the first, < 50 nM for the second.

Compared with `CN(C(=O)NCC(=O)O)C1CCN(Cc2ccc(-c3cc4nccc(Oc5ccc(NC(=O)NC6CC6)cc5F)c4s3)nc2)CC1` [Compound 427], `O=C(Nc1ccc(Oc2ccnc3cc(C4=CCN(CCCN5CCOCC5)CC4)sc23)c(F)c1)NC1CC1` [Compound 276, 1-cyclopropyl-3-(3-fluoro-4-(2-(1-(3-morpholinopropyl)-1,2,3,6-tetrahydropyridin-4-yl)thieno[3,2-b]pyridin-7-yloxy)phenyl)urea] is higher in IC50: < 50 nM for the first, 50 to 100 nM for the second. The first is the more potent here.

`CCOC(=O)NC1CCN(Cc2ccc(-c3cc4nccc(Oc5ccc(NC(=O)NC6CC6)cc5F)c4s3)nc2)CC1` [Compound 351] and `Cn1c(CN2CCOCC2)cnc1-c1cc2nccc(Oc3ccc(NC(=O)NC4CC4)cc3F)c2s1` [Compound 298] cannot be ordered by IC50: < 50 nM for the first, < 50 nM for the second.

`CN1CCC(C(=O)N2CCN(Cc3ccc(-c4cc5nccc(Oc6ccc(NC(=O)NC7CC7)cc6F)c5s4)nc3)CC2)CC1` [Compound 539] and `CC(C)(C)C(=O)OC1CN(C(=O)c2cc3nccc(Oc4ccc(NC(=O)NC5CC5)cc4F)c3s2)C1` [Compound 454] cannot be ordered by IC50: < 50 nM for the first, < 50 nM for the second.

`COCCNCc1ccc(-c2cc3nccc(Oc4ccc(NC(=O)NC5CC5)cc4F)c3s2)cc1` [Compound 113] and `COC(=O)CC(C)N1CCN(Cc2ccc(-c3cc4nccc(Oc5ccc(NC(=O)NC6CC6)cc5F)c4s3)nc2)CC1` (stereo not drawn) [Compound 508, methyl 3-(4-((6-(7-(4-(3-cyclopropylureido)-2-fluorophenoxy)thieno[3,2-b]pyridin-2-yl)pyridin-3-yl)methyl)piperazin-1-yl)butanoate] cannot be ordered by IC50: < 50 nM for the first, < 50 nM for the second.

`CC(=O)N(Cc1ccc(-c2cc3nccc(Oc4ccc(NC(=O)NC5CC5)cc4F)c3s2)nc1)C1CCNCC1` [Compound 609, N-((6-(7-(4-(3-Cyclopropylureido)-2-fluorophenoxy)thieno[3,2-b]pyridin-2-yl)pyridin-3-yl)methyl)-N-(piperidin-4-yl)acetamide] and `N[C@@H]1CCN(Cc2ccc(-c3cc4nccc(Oc5ccc(NC(=O)NC6CC6)cc5F)c4s3)nc2)C1=O` [Compound 109, (R)-1-(4-(2-(5-((3-amino-2-oxopyrrolidin-1-yl)methyl)pyridin-2-yl)thieno[3,2-b]pyridin-7-yloxy)-3-fluorophenyl)-3-cyclopropylurea] cannot be ordered by IC50: < 50 nM for the first, < 50 nM for the second.

`O=C(Nc1ccc(Oc2ccnc3cc(-c4ccc(CN5CCN(C(=O)[C@H]6CCC(=O)O6)CC5)cn4)sc23)c(F)c1)NC1CC1` [Compound 543] and `CC(C)(C)OC(=O)N1CCN(Cc2ccc(-c3cc4nccc(Oc5ccc(NC(=O)NC6CC6)cc5F)c4s3)nc2)CC1` [Compound 48, tert-butyl 4-((6-(7-(4-(3-cyclopropylureido)-2-fluorophenoxy)thieno[3,2-b]-pyridin-2-yl)pyridin-3-yl)methyl)piperazine-1-carboxylate] cannot be ordered by IC50: < 50 nM for the first, < 50 nM for the second.

`CC1(C)CN(Cc2ccc(-c3cc4nccc(Oc5ccc(NC(=O)NC6CC6)cc5F)c4s3)nc2)CCN1` [Compound 496, 1-cyclopropyl-3-(4-(2-(5-((3,3-dimethylpiperazin-1-yl)methyl)pyridin-2-yl)thieno[3,2-b]pyridin-7-yloxy)-3-fluorophenyl)urea] and `O=C(CCn1cncn1)NC1CCN(Cc2ccc(-c3cc4nccc(Oc5ccc(NC(=O)NC6CC6)cc5F)c4s3)nc2)CC1` [Compound 347] cannot be ordered by IC50: < 50 nM for the first, < 50 nM for the second.

`O=C(Nc1ccc(Oc2ccnc3cc(-c4cn(CCCN5CCOCC5)nn4)sc23)c(F)c1)NC1CC1` [Compound 385] and `COCCN(Cc1cnc(-c2cc3nccc(Oc4ccc(NC(=O)NC5CC5)cc4F)c3s2)n1C)C(C)=O` [Compound 212, N-((2-(7-(4-(3-cyclopropylureido)-2-fluorophenoxy)thieno[3,2-b]pyridin-2-yl)-1-methyl-1H-imidazol-5-yl)methyl)-N-(2-methoxyethyl)acetamide] cannot be ordered by IC50: < 50 nM for the first, < 50 nM for the second.

`O=C(O)COC1CCN(Cc2ccc(-c3cc4nccc(Oc5ccc(NC(=O)NC6CC6)cc5F)c4s3)nc2)CC1` [Compound 329, 2-(1-((6-(7-(4-(3-cyclopropylureido)-2-fluorophenoxy)thieno[3,2-b]pyridin-2-yl)pyridin-3-yl)mcthyI)piperidin-4-yloxy)acetic acid] and `O=C(Nc1ccc(Oc2ccnc3cc(-c4cnn(CCOC(=O)NC5CC5)c4)sc23)c(F)c1)NC1CC1` [Compound 157, 2-(4-(7-(4-(3-cyclopropylureido)-2-fluorophenoxy)thieno[3,2-b]pyridin-2-yl)-1H-pyrazol-1-yl)ethyl cyclopropylcarbamate] cannot be ordered by IC50: < 50 nM for the first, < 50 nM for the second.

Compared with `CCNC(=O)N(CCOC)CCn1cc(-c2cc3nccc(Oc4ccc(NC(=O)NC5CC5)cc4F)c3s2)cn1` [Compound 255, N-(2-(4-(7-(4-(3-cyclopropylureido)-2-fluorophenoxy)thieno[3,2-b]-pyridine-2-yl)-1H-pyrazol-1-yl)ethyl)-N-(1-ethyl)-N-[3-(2-methoxyethyl)]urea], `CC(=O)N[C@H]1CCN(Cc2ccc(-c3cc4nccc(Oc5ccc(NC(=O)NC6CC6)cc5F)c4s3)nc2)C1=O` [Compound 44, (S)-N-(l-((6-(7-(4-(3-cyclopropylureido)-2-fluorophenoxy)thieno[3,2-b]pyridin-2-yl)pyridin-3-yl)methyl)-2-oxopyrrolidin-3-yl)acetamide] is lower in IC50: 50 to 100 nM for the first, < 50 nM for the second.

First: COCCN(Cc1ccc(-c2cc3nccc(Oc4ccc(NC(=O)NC5CC5)cc4F)c3s2)nc1)CC(F)(F)F [Compound 8, 1-cyclopropyl-3-(3-fluoro-4-(2-(5-(((2-methoxyethyl)(2,2,2-trifluoroethyl)amino)-methyl)pyridin-2-yl)thieno [3,2-b]pyridin-7-yloxy)phenyl)urea]
Second: CC(C)NC(=O)NC1CCN(Cc2ccc(-c3cc4nccc(Oc5ccc(NC(=O)NC6CC6)cc5F)c4s3)nc2)CC1 [Compound 355]
The IC50 of the first is higher: 50 to 100 nM for the first, < 50 nM for the second. The second is the more potent here.
